According to patent US20240181022A1, “AMURINS LYSINS, AND LYSIN-ANTIMICROBIAL PEPTIDE (AMP) CONSTRUCTS ACTIVE AGAINST GRAM-NEGATIVE BACTERIA” (priority 2021, published 2024):
≈ marks a conversion by molar mass, not a printed value. Where “and” joins values, the source holds several entries; their conditions need not be identical. Equal values may be shown once. Read-outs that look alike come from different tables or passages of the source. Marks after values point to notes of the source that are not given here.

How the values were obtained:
P. aeruginosa [1] = experiment: Checkerboard synergy assay (FICI) with antibiotics against P. aeruginosa; format: cell-based, Pseudomonas aeruginosa; details: for FICI of the antibiotic with GN370: P. aeruginosa ATCC 27853, checkerboard; for Antibiotic MIC (single agent): P. aeruginosa strain AR-769; for Antibiotic FIC / Antibiotic MIC (combo): P. aeruginosa strain AR-769, in combination with GN370; for Antibiotic MIC (combo): in µg/mL
Experimental: (§1) Any known method to assess MIC may be used.
(§2) Checkerboards are constructed by first preparing columns of e.g., a 96-well polypropylene microtiter plate, wherein each well has the same amount of antibiotic diluted 2-fold along the horizontal axis. […] Bacteria are added to the drug combinations at concentrations of 1×10^5 […] in CAA, for example, with or without human serum or pulmonary surfactant. […] Summation fractional inhibitory concentrations (ΣFICs) are calculated for each drug and the minimum ΣFIC value (ΣFICmin) is used to determine the effect of the Chp peptide/antibiotic combination.
The synergy of GN370 with meropenem was evaluated against 3 different strains of P. aeruginosa and three different strains of B. cenocepacia.
(§3) GN370 was further tested in combination with up to seven additional antibiotics (in addition to meropenem) against a variety of bacterial strains, including P. aeruginosa, A. baumannii, E. coli, E. cloacae, and K. pneumoniae. GN370 and the subject antibiotics were tested in a checkerboard assay format, and FICI values were determined, wherein ≤0.5 indicates synergy, >0.5-≤1 indicates additive; and >1 indicates indifferent.

A. baumannii = experiment: Checkerboard synergy assay (FICI) against A. baumannii; format: cell-based, Acinetobacter baumannii; details: A. baumannii ATCC BAA-747
Experimental: as §1, §2, §3

E. coli = experiment: Checkerboard synergy assay (FICI) against E. coli; format: cell-based, Escherichia coli; details: E. coli ATCC 25922
Excerpt: In some embodiments, the Chp peptides disclosed herein or active fragments thereof reduce the minimum inhibitory concentration (MIC) of an antibiotic in the presence and/or absence of human serum, pulmonary surfactant, and/or sputum, including human sputum and human sputum from a cystic fibrosis patient. Any known method to assess MIC may be used. In some embodiments, a checkerboard assay is used to determine the effect of a Chp peptide or active fragment thereof on antibiotic concentration. The checkerboard assay is based on a modification of the CLSI method for MIC determination by broth microdilution (See Clinical and Laboratory Standards Institute (CLSI), CLSI. 2015. Methods for Dilution Antimicrobial Susceptibility Tests for Bacteria That Grow Aerobically; Approved Standard-10th Edition. Clinical and Laboratory Standards Institute, Wayne, PA, which is herein incorporated by reference in its entirety and Ceri et al. 1999. J. Clin. Microbiol. 37: 1771-1776, which is also herein incorporated by reference in its entirety).
Checkerboards are constructed by first preparing columns of e.g., a 96-well polypropylene microtiter plate, wherein each well has the same amount of antibiotic diluted 2-fold along the horizontal axis. […] The Chp peptide or active fragment thereof and antibiotic dilutions are then combined, so that each column has a constant amount of antibiotic and doubling dilutions of Chp peptide, while each row has a constant amount of Chp peptide and doubling dilutions of antibiotic. Each well thus has a unique combination of Chp peptide and antibiotic. Bacteria are added to the drug combinations at concentrations of 1×10^5 GFU/ml in CAA, for example, with or without human serum or pulmonary surfactant. […] Summation fractional inhibitory concentrations (ΣFICs) are calculated for each drug and the minimum ΣFIC value (ΣFICmin) is used to determine the effect of the Chp peptide/antibiotic combination.
as §3

E. cloacae = experiment: Checkerboard synergy assay (FICI) against E. cloacae; format: cell-based, Enterobacter cloacae; details: E. cloacae ATCC 13047
Experimental: as §1, §2, §3

K. pneumoniae = experiment: Checkerboard synergy assay (FICI) against K. pneumoniae; format: cell-based, Klebsiella pneumoniae; details: K. pneumoniae HM-44
Experimental: as §1, §2, §3

P. aeruginosa AR-769 [2] = experiment: Repeat dose study of AM1 in the rabbit pulmonary infection model; format: in vivo
P. aeruginosa AR-769 [3] = experiment: GN370 in the rabbit pneumonia model; format: in vivo, New Zealand White rabbits; details: amikacin-alone or GN370-alone
P. aeruginosa [4] = tested on: P. aeruginosa
P. aeruginosa [5] = experiment: Serial passage resistance development study, P. aeruginosa; format: cell-based, Pseudomonas aeruginosa; details: for MIC: Pseudomonas aeruginosa
P. aeruginosa [6] = details: 21 day serial passage, literature; cited from earlier work
S. maltophilia = experiment: Serial passage resistance development study, S. maltophilia; format: cell-based, Stenotrophomonas maltophilia; details: for MIC: Stenotrophomonas maltophilia
A. xylosoxidans = experiment: Serial passage resistance development study, A. xylosoxidans; format: cell-based, Achromobacter xylosoxidans; details: for change in MIC over serial passage: A. xylosoxidans; for MIC: Achromobacter xylosoxidans
[7] = tested on: A. baumannii (ATCC BAA-747); experiment: microbe, parasite or virus in culture; format: cell-based, Acinetobacter baumannii
E. coli (ATCC 25922) = experiment: microbe, parasite or virus in culture; format: cell-based, Escherichia coli
[8] = tested on: K. pneumoniae (1_1_5 HM-44); experiment: microbe, parasite or virus in culture; format: cell-based, Klebsiella pneumoniae
E. cloacae (ATCC 13047) = experiment: microbe, parasite or virus in culture; format: cell-based, Enterobacter cloacae
M. avium = experiment: MIC against M. avium; format: cell-based, Mycobacterium avium; details: M. avium (ATCC 700898); CAAT media
[9] = rabbit, amikacin 16 mg/kg i.v. every 8 hours (n = 17)
[10] = 672 h, read-out: MIC after 28-day serial passage
[11] = read-out: MIC at start of serial passage

For `NCC[C@H](O)C(=O)N[C@@H]1C[C@H](N)[C@@H](O[C@H]2O[C@H](CN)[C@@H](O)[C@H](O)[C@H]2O)[C@H](O)[C@H]1O[C@H]1O[C@H](CO)[C@@H](O)[C@H](N)[C@H]1O` [amikacin, reference compound], the “FICI of the antibiotic with GN370” value (P. aeruginosa [1]) was 0.375, the Antibiotic MIC (single agent) (P. aeruginosa [1]) was 0.5 µg/mL and the “Antibiotic FIC” value (P. aeruginosa [1]) was 0.25. The “Antibiotic MIC (combo)” value (P. aeruginosa [1]) was 0.125, the “FICI of the antibiotic with GN370” value (A. baumannii) was 0.625 and the “FICI of the antibiotic with GN370” value (E. coli) was 0.25. For the same compound, the “FICI of the antibiotic with GN370” value (E. cloacae) was 0.75, the “FICI of the antibiotic with GN370” value (K. pneumoniae) was 0.375 and the “mean bacterial density in lungs compared to the vehicle control group” value (P. aeruginosa AR-769 [2]; agent alone, intravenous, treatment from 6 hours post-infection) was “moderate to no CFU/g reduction”. For the same compound, the “Log CFU change v. pre-treatment (at 6 hours)” value (P. aeruginosa AR-769 [2]; [9]) was 0.35* Log CFU, the “Mean Bacterial Density in Lung ± SD” value (P. aeruginosa AR-769 [2]; [9]) was 7.84 ± 1.06 Log CFU/lung and the Survival (P. aeruginosa AR-769 [2]; [9]) was 85%. The “decrease of mean bacterial densities in lungs vs vehicle controls” value (P. aeruginosa AR-769 [3]) was 1.3 log10 CFU/g and the MIC (P. aeruginosa [4]; XDR P. aeruginosa strain AR-769) was 8 µg/mL (≈ 13.7 µM).
In the case of `O=C(O)c1cn(C2CC2)c2cc(N3CCNCC3)c(F)cc2c1=O` [ciprofloxacin, reference compound], the Antibiotic MIC (single agent) (P. aeruginosa [1]) is reported as 8 µg/mL, the “Antibiotic FIC” value (P. aeruginosa [1]) is reported as 0.25 and the “Antibiotic MIC (combo)” value (P. aeruginosa [1]) is reported as 2 and 1. For the same compound, the “Antibiotic FIC” value (P. aeruginosa [1]; listed as Ciprofloxacin) was 0.125, the “FICI of the antibiotic with GN370” value (K. pneumoniae) was 0.156 and the “change in MIC over 28-day serial passage” value (P. aeruginosa [5]; P. aeruginosa (PA453)) was “up to 512 fold”. For the same compound, the “change in MIC over serial passage” value (P. aeruginosa [5]; P. aeruginosa strain CFS 1292, Day 28) was 256 fold, the MIC (P. aeruginosa [5]) was 2 µg/mL (≈ 6.04 µM) and the MIC (P. aeruginosa [5]; [10]) was 256 µg/mL (≈ 773 µM). For the same compound, the MIC (P. aeruginosa [5]; [11]) was 1 µg/mL (≈ 3.02 µM) and the “increase of MIC over serial passage (D'Lima et al.)” value (P. aeruginosa [6]) was “up to 32 fold”.
For `C[C@H]1COc2c(N3CCN(C)CC3)c(F)cc3c(=O)c(C(=O)O)cn1c23` [levofloxacin, reference compound], the MIC (P. aeruginosa [5]) was 4 µg/mL (≈ 11.1 µM), the “change in MIC over serial passage” value (S. maltophilia; S. maltophilia, day 28, triplicate) was “up to 256 fold” and the MIC (S. maltophilia; [10]) was 64 µg/mL (≈ 177 µM). The MIC (S. maltophilia; [11]) was 0.25 µg/mL (≈ 0.692 µM), the “change in MIC over serial passage” value (A. xylosoxidans; day 28) was 128 fold and the “change in MIC over serial passage” value (A. xylosoxidans; day 28, another instance) was 64 fold. The MIC (A. xylosoxidans; 672 h, read-out: MIC after 28-day serial passage, A. xylosoxidans) was 32 µg/mL (≈ 88.6 µM), the MIC (A. xylosoxidans; 672 h, read-out: MIC after 28-day serial passage, A. xylosoxidans, another instance) was 128 µg/mL (≈ 354 µM) and the MIC (A. xylosoxidans; read-out: MIC at start of serial passage, A. xylosoxidans) was 0.25 µg/mL (≈ 0.692 µM). For the same compound, the MIC (A. xylosoxidans; read-out: MIC at start of serial passage, A. xylosoxidans, another instance) was 2 µg/mL (≈ 5.53 µM), the “change in MIC over 28-day serial passage” value ([7]; A. baumannii (ATCC BAA-747)) was 128 fold and the MIC ([7]; Acinetobacter baumannii, ATCCBAA747) was 0.125 µg/mL (≈ 0.346 µM). The “change in MIC over 28-day serial passage” value (E. coli (ATCC 25922); E. coli (ATCC 25922)) was 128 fold, the MIC (E. coli (ATCC 25922); Escherichia coli, ATCC25922) was 0.0312 µg/mL (≈ 0.0865 µM) and the “change in MIC over 28-day serial passage” value ([8]; K. pneumoniae (1_1_5 HM-44)) was “up to 512 fold”. For the same compound, the MIC ([8]; Klebsiella pneumoniae) was 0.0312 µg/mL (≈ 0.0865 µM), the “change in MIC over 28-day serial passage” value (E. cloacae (ATCC 13047); E. cloacae (ATCC 13047)) was 256 fold and the MIC (E. cloacae (ATCC 13047); Enterobacter cloacae, ATCC13047) was 0.0625 µg/mL (≈ 0.173 µM). The MIC (P. aeruginosa [4]; […], before serial passage) was 1 µg/mL (≈ 2.77 µM).
With `NC[C@H]1O[C@H](O[C@H]2[C@H](O)[C@@H](O[C@H]3O[C@H](CO)[C@@H](O)[C@H](N)[C@H]3O)[C@H](N)C[C@@H]2N)[C@H](N)C[C@@H]1O` [tobramycin, reference compound] the MIC (M. avium) was 0.125 Tg/mL, the “FICI of the antibiotic with GN370” value (P. aeruginosa [1]) was 0.5 and the Antibiotic MIC (single agent) (P. aeruginosa [1]) was 0.125 µg/mL. The “Antibiotic FIC” value (P. aeruginosa [1]) was 0.125, the “Antibiotic MIC (combo)” value (P. aeruginosa [1]) was 0.016 and 0.015 and the “FICI of the antibiotic with GN370” value (A. baumannii) was 0.5. The “FICI of the antibiotic with GN370” value (E. coli) was 0.25, the “FICI of the antibiotic with GN370” value (E. cloacae) was 0.5 and the “FICI of the antibiotic with GN370” value (K. pneumoniae) was 0.375. It also gave an MIC (P. aeruginosa [4]; […], before serial passage) of 0.002 µg/mL (≈ 0.00428 µM).
